Measured values as given in PubChem BioAssay (NCI).
Where “and” joins values, the source holds several entries; their conditions need not be identical. Equal entries are not always repeated.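 How tested: cells in 96-well plates exposed to compound for 48 hours at five concentrations. Here, GI50 denotes the concentration required for 50% inhibition of growth. Definition used: TGI = concentration required for complete inhibition of growth.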

How the values were obtained:
Test in all cases: growth of human tumour cells (NCI), 48 h
[1] = tested on: NCI-H460 lung
[2] = tested on: K-562 leukemia
[3] = tested on: NCI-H23 lung
[4] = tested on: SN12C renal
[5] = tested on: SF-268 CNS
[6] = tested on: HOP-92 NSCLC
[7] = tested on: RXF 393 renal
[8] = tested on: BT-549 breast
[9] = tested on: SF-539 CNS
[10] = tested on: SK-MEL-5 melanoma

Structure (SMILES)	GI50 [1]	TGI [1]	GI50 [2]	TGI [2]	GI50 [3]	TGI [3]	GI50 [4]	TGI [4]	GI50 [5]	TGI [5]	GI50 [6]	TGI [6]	GI50 [7]	TGI [7]	GI50 [8]	TGI [8]	GI50 [9]	TGI [9]	TGI [10]	GI50 [10]
CN(C)CCOc1ccccc1NC1=C(Cl)C(=O)C(Nc2ccccc2OCCN(C)C)=C(Cl)C1=O	27.8 µM	> 96.4 µM	2.26 µM	5.41 µM	6.47 µM	22.6 µM	0.573 µM	1.21 µM	9.76 µM	36.3 µM	1.45 µM	3.07 µM	3.93 µM	10.4 µM	20.7 µM	> 49.7 µM	16.4 µM	> 48.3 µM	> 23.8 µM	–
COc1ccc(NC(=O)c2ccc(NC3=C(Cl)C(=O)N(Cc4ccccc4)C3=O)cc2)c(OC)c1	38.4 µM	> 100 µM	8.18 µM	43 µM	14.3 µM	29.2 µM	29.2 µM	83.5 µM	29.1 µM	> 100 µM	6.27 µM	47 µM	50.2 µM	> 100 µM	13.1 µM	45 µM	28.2 µM	67.1 µM	75.2 µM	26.2 µM
O=[N+]([O-])c1ccc2c(c1)C(c1ccccc1Cl)=Nc1c(n[nH]c1-c1cccnc1)N2	> 25 µM	> 25 µM	> 25 µM	> 25 µM	> 25 µM	> 25 µM	> 25 µM	> 25 µM	> 25 µM	> 25 µM	> 25 µM	> 25 µM	> 25 µM	> 25 µM	> 25 µM	> 25 µM	> 25 µM	> 25 µM	> 25 µM	> 25 µM
COc1cc(C2CC(=O)Nc3c2c(C)nn3-c2nc3ccccc3[nH]2)cc(OC)c1O (stereo not given)	3.19 µM	> 35.1 µM	4.67 µM	> 100 µM	3.15 µM	11.2 µM	3.98 µM	> 72.3 µM	3.83 µM	45 µM	2.8 µM	8.81 µM	2.17 µM	5.14 µM	2.6 µM	6.09 µM	3.1 µM	13.5 µM	3.62 µM	1.83 µM
CN(C)CCNC(=O)c1ccc2oc3cc4ccccc4c(=O)n3c2c1	42.2 µM	> 100 µM	64.1 µM	> 100 µM	17.4 µM	57.8 µM	46.6 µM	> 100 µM	32.6 µM	93.2 µM	> 100 µM	> 100 µM	23.8 µM	70.4 µM	27.4 µM	66.2 µM	22 µM	47.3 µM	43.6 µM	22.6 µM
NC(N)=Nc1ccc(/C=C2\C=Cc3ccccc32)cc1	2.01 µM	4.51 µM	2.66 µM	> 22 µM	2.95 µM	10.4 µM	2.95 µM	13.2 µM	3.12 µM	10.9 µM	1.44 µM	4.6 µM	2.14 µM	5.52 µM	3.98 µM	26.5 µM	3.66 µM	9.66 µM	17.8 µM	4.5 µM
O=[N+]([O-])c1oc2ccc3ccccc3c2c1CCO	–	0.819 µM	–	> 100 µM	–	17 µM	–	> 52 µM	–	40.5 µM	–	35 µM	–	3.71 µM	–	8.71 µM	–	13.4 µM	1.98 µM	–
Oc1ccccc1/C=N\NC(=S)N/N=C/c1ccccc1O	0.62 µM	12.1 µM	1.59 µM	> 100 µM	3.91 µM	> 100 µM	3.09 µM	79.5 µM	1.08 µM	44.1 µM	10.3 µM	64.5 µM	5.72 µM	> 100 µM	13.9 µM	> 100 µM	3.26 µM	34.3 µM	8.53 µM	1.69 µM
C/C=C(\C)C(=O)O[C@H]1C=CC(=O)O[C@H]1COC(=O)[C@H](C)O	10.3 µM	29.1 µM	3.69 µM	17.6 µM	15.3 µM	36.9 µM	12.9 µM	28.3 µM	4.32 µM	17.6 µM	7.6 µM	21.1 µM	–	7.41 µM	9.56 µM	21.7 µM	9.73 µM	23.3 µM	16.7 µM	4.62 µM
Cc1[nH]nc2ncc(C(=O)N3CCC[C@H]3c3ccc(Cl)cc3)cc12	> 100 µM	> 100 µM	37.1 µM	> 100 µM	> 100 µM	> 100 µM	> 100 µM	> 100 µM	> 100 µM	> 100 µM	80.7 µM	> 100 µM	39.5 µM	> 100 µM	50.6 µM	> 100 µM	44.4 µM	> 100 µM	> 100 µM	31 µM
COC(=O)[C@@H](C)C[C@H](Cc1ccccc1)NC(=O)c1csc([C@@H](C[C@H](C(C)C)N(C)C(=O)[C@@H](NC(=O)[C@H]2CCCN2C)C2CC2)OC(C)=O)n1	0.00238 µM and 0.0025 µM	> 25 µM	0.000352 µM and 0.0025 µM	> 25 µM	0.00365 µM and 0.0025 µM	> 25 µM	0.000981 µM and 0.0025 µM	> 25 µM	0.00871 µM and 0.0025 µM	> 25 µM	0.000286 µM	–	0.0025 µM	> 25 µM	0.000664 µM and < 0.0025 µM	–	0.00172 µM and < 0.0025 µM	0.00659 µM and < 0.0025 µM	–	0.000329 µM and < 0.0025 µM
CC/C=C\C[C@H](O)C/C=C1/C(=O)C=C[C@@H]1C/C=C\CCCCO	2.93 µM	9.24 µM	2.91 µM	> 100 µM	2.26 µM	5.95 µM	2.52 µM	6.53 µM	4.53 µM	23.9 µM	11.7 µM	25 µM	2.25 µM	4.18 µM	2.46 µM	6.68 µM	2.03 µM	4.55 µM	3.78 µM	1.88 µM
CC(C)Cc1ccc(C(C)C(=O)NCc2ccc(Cn3c(=O)sn(CCCI)c3=O)cc2)cc1 (stereo not given)	1.36 µM	3.08 µM	0.388 µM	> 100 µM	1.32 µM	2.79 µM	0.646 µM	1.97 µM	1.46 µM	2.95 µM	0.308 µM	1.56 µM	0.326 µM	1.33 µM	0.571 µM	1.81 µM	0.804 µM	2.08 µM	2.78 µM	1.46 µM
